Molecules are shown by their SMILES.

One data set deals with T1, CRTH2 (DP2) (Homo sapiens, UniProt Q9Y5Y4).
T1 construct: host or cells: CHO cells
T1 sequence (Q9Y5Y4 1-395): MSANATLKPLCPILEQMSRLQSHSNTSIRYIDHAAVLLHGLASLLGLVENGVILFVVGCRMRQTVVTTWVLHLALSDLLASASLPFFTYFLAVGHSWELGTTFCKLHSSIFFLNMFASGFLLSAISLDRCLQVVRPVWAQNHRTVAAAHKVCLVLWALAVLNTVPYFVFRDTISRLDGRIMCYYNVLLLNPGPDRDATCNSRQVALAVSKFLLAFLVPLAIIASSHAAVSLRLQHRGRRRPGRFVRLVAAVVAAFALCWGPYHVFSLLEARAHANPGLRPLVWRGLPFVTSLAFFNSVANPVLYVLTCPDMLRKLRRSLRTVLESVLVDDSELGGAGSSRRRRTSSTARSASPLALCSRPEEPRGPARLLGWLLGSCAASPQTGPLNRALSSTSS
Nature of the data set: Radioligand binding Scintillation Proximity Assay ([3H]PGD2, hCRTH2-CHO cell membranes). As to conditions: 1.5 nM [3H]PGD2, hCRTH2-CHO cell membranes, SPA. The procedure, abridged:
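Membranes from CHO cells stably expressing human CRTH2, made by nitrogen cavitation and differential centrifugation. Compounds competed with [3H]PGD2 at 1% DMSO for 90 min with agitation at room temperature. Non-specific binding taken with 10 μM PGD2.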

Data set [1] relates to eosinophils (PGD2-induced cell shape change). Put plainly: PGD2-induced eosinophil cell shape assay in human whole blood. Type of data set: cell-based. The note with it: 10 nM PGD2 final. How it is done: The Compounds of Formula (I) were diluted in dimethylsulphoxide so that the total volume of dimethylsulfoxide was kept constant at 2% dimethylsulphoxide (Me2SO). Serial dilutions of 200 μM to 0.09 μM were prepared. Samples of 90 μl of human blood from healthy volunteers (Centre de Transfusion Sanguine de Genéve) were pre-incubated in polypropylene Falcon tubes (BD 352063) for 20 minutes in a water bath at 37° C. with 10 μl of diluted compounds. For CRTH2 activation, 100 μl PGD2 (Cayman 12010) at 20 nM was added (10 nM final) to each tube and cells were maintained at 37° C. For negative control cells were treated with PBS. After 10 minutes, cell activation was stopped with 120 μl Formaldehyde 10% (4% final, Fluka 41650) and cells were rested for 10 minutes at room temperature. Fixed cells were transferred into polypropylene tubes and then treated for 1 hour in a water bath at 37° C. with 2 ml of Triton-Surfact-Amps X-100 (Pierce 28314) at 0.166% (0.13% Triton final). After several washes with PBS (red cells lysed progressively during washes, two washes are necessary), cells were analyzed by flow cytometry on a FACSCalibur. In one embodiment, the compounds of Formula (I) of the present invention are capable of blocking the cell shape change of eosinophils induced by PGD2 in Whole Blood.

Data set [2] can be described thus: In vivo pharmacokinetic evaluation in mouse. The note with it: mice. How it is done: In order to study the pharmacokinetic (PK) profile of test compounds in vivo, Sprague Dawley male rats or C57BL/6 female mice were dosed intravenously or after oral gavage. For both species, test compounds were dosed in solution at 1 mg/kg for i.v. route (10% ethanol, 10% N,N-dimethylacetamide, 30% propylene glycol, 50% water, v/v) and in suspension at 5 mg/kg (0.5% carboxymethylcellulose suspension, containing 0.25% Tween 20 in water) for oral gavage. PK profile in rat was obtained from 3 animals per dosing route and mouse PK profile was determined from 3 animals for each time points. The volume of administration was 2 mL/kg for i.v. dosing in both species and either 5 mL/kg (rat) or 10 mL/kg (mouse) for oral gavage. Blood samples (100 μL/time point) were collected at 0.083 (5 min), 0.25, 0.5, 1, 4, 7 and 24 hours post-dose for i.v. dosing, and at 0.5, 1, 4, 7 and 24 h for oral dosing, into heparin-Li+ containing tubes. For rats, all blood samples were collected trough a catheter in the carotid artery (placed in the artery the day before the experiment), under light isoflurane anesthesia, and stored on ice until centrifugation and plasma isolation. For mouse, blood samples were collected from intracardiac puncture at sacrifice at each time point and processed as described above for the rat. Plasma samples were stored frozen until analysis (−20° C. to −70° C.). For bioanalysis, samples were processed by protein precipitation (acetonitrile, formic acid 0.1%, addition of 3 volumes) after addition of one internal standard and analysed using a sensitive and selective LC/MS/MS method. An aliquot of the resulting supernatant was subject to LC/MS/MS analysis using a reverse phase column (Waters Xterra, C8, (3.5 μm particle size, 2.1×50 mm) and a short gradient (1 min) from (Solvent A) 85% water, 15% acetonitrile and 0.1% formic acid to (Solvent B) 90% acetonitrile, 10% water and 0.1% formic acid followed by isocratic conditions of Solvent B for 3.5 min at 0.4 mL/min. Column effluent was monitored using a Sciex API 4000 triple quadrupole mass spectrometer with a Turbo V electrospray ion source. Unknown concentrations of test compounds were determined using a calibration curve ranging from 1 to 3000 ng/mL.

Data set [3] has as its target T2, CRTH2 (Homo sapiens, UniProt Q9Y5Y4).
T2 construct: expressed in transfected cells; host or cells: CHO cells
T2 sequence (Q9Y5Y4 1-395): T1 sequence (Q9Y5Y4 1-395)
Put plainly: [35S]GTPγS binding assay on CHO-CRTH2 cell membranes. Type of data set: biochemical. The note with it: without addition of PGD2; 100% of Emax being the activity measured by the addition of 1 μM of PGD2. How it is done: Adherent CHO cells expressing hCRTH2 (Euroscreen, Belgium) were cultured in 225 cm^2 cell culture flasks (Corning, USA) in 30 ml of medium. After two rinses of phosphate buffered saline (PBS), cells were harvested in 10 ml of PBS containing 1 mM EDTA, centrifuged at 500×g for 5 min at 4° C. and frozen at −80° C. The pellet was re-suspended in 50 mM Tris-HCl, pH 7.4, 2 mM EDTA, 250 mM Sucrose, containing protease inhibitor cocktail tablets, (Complete EDTA-free, Roche, Germany) and incubated 30 min at 4° C. Cells were disrupted by nitrogen cavitation (Parr Instruments, USA) at 4° C. (800 p.s.i. for 30 min), and centrifuged at 500×g for 10 min at 4° C. Pellet containing nuclei and cellular debris was discarded and supernatant was centrifuged 60 min at 4° C. at 45000×g. Membrane pellet was re-suspended in storage buffer (10 mM HEPES/KOH pH 7.4, 1 mM EDTA, 250 mM sucrose, protease inhibitor cocktail tablets) using Dounce homogenization and frozen in liquid nitrogen, and stored at 80° C.
The [^35S]GTPγS assay measures the increase in guanine nucleotide exchange at G-proteins in cell membranes, resulting from agonist (PGD2) binding to CRTH2. […] Briefly, Compounds of Formula (I) are incubated in 96-well scintillating white polystyrene plates (Perkin Elmer, USA) in a final volume of 200 μl containing 20 mM HEPES/KOH pH 7.4, 3 mM MgCl2, 10 μg/ml Saponin, 5 μM GDP, 75 mM NaCl and 2% of dimethylsulphoxide (DMSO). […] After 60 min incubation at 30° C., reaction is stopped by centrifugation at 700×g, at 4° C. for 10 minutes and supernatant is removed. […] For IC50 determination, increasing concentrations of compounds are incubated in presence of a fixed concentration of PGD2 (EC80). For EC50 measurements, compounds are incubated without addition of PGD2. Basal [^35S]GTPγS activity is determined without addition of any ligands or compounds. 100% [^35S]GTPγS activity is measured by the addition of 1 μM of PGD2.

Data set [4] deals with T2, CRTH2. Put plainly: Cellular Dielectric Spectroscopy in CHO-CRTH2 cells. The note with it: fixed concentration of PGD2 (EC80), read-out: IC50(μM) (CDS, antagonist). Type of data set: cell-based. How it is done: Cellular Dielectric Spectroscopy (CDS) is a label-free technology based on the measurement of complex impedance changes (delta Z or dZ). Impedance (Z) is related to the ratio of voltage to current as described by Ohm's law (Z=V/I). In order to measure the changes in impedance that occur in response to receptor stimulation, mammalian cells are seeded onto a custom 96-well microtiter plate that contains electrodes at the bottom of each well Key contributors to the impedance measurements are changes in cell-substrate adherence, changes in cell shape and volume, and changes in cell-cell interactions. These factors individually or collectively affect the flow of current, influencing the magnitude and characteristics of the signal measured. G-protein coupled receptors ligand-induced activity can be measured using this technology and specific G protein coupling can be identified. Activities of reference agonist and antagonist molecules of CRTH2 have been measured using this assay and similar results were obtained compared to different functional assays.
CHO—CRTH2 cells are cultured in HAM's F12 (Lonza, Switzerland) supplemented with 10% foetal calf serum (PAA, Australia) and 400 μg/ml Geneticin. 100000 cells/well are seeded in standard 96 W Microplates (MDS Analytical Technologies) and incubated at 37° C. in 5% CO2 for 24 hours. Cells are washed twice with 135 μl of cell key buffer (Hank's Balanced Salt Solution 1× (HBSS) (Invitrogen) supplemented with 10 mM HEPES pH 7.4 in presence of 1% DMSO). […] Results are expressed as the amplitude between the highest and the lowest signal produced (max-min). Basal and maximum activities are measured, respectively in absence or presence of PGD2 (EC80).

Turning to `CCC(=O)N(Cc1ccc(OC(F)(F)F)cc1)c1cc(Cl)cc(-c2nnn[nH]2)c1` [Example 57, N-[3-chloro-5-(1H-tetrazol-5-yl)phenyl]-N-[4-(trifluoromethoxy)benzyl]propanamide], the melting point stood at 144 °C. For the same compound, at CRTH2 (DP2), the IC50 stood at 15 nM. In data set [1], the IC50 was found to be 0.233 µM.
Take `CCC(=O)N(Cc1ccc(C(F)(F)F)cc1)c1cc(F)cc(-c2nnn[nH]2)c1` [Example 58, N-[3-fluoro-5-(1H-tetrazol-5-yl)phenyl]-N-[4-(trifluoromethyl)benzyl]propanamide]: the IC50 was determined as 7.1 nM at CRTH2 (DP2) and 0.102 µM in data set [1]. The “Clearance iv (1 mg/Kg)” value in data set [2] (i.v. 1 mg/Kg) was found to be 5 mL/min/kg. In addition, in data set [2] (oral gavage 5 mg/Kg), the “AUC po (5 mg/Kg)” value was 11212 ng·h/mL. This compound displayed an Oral bioavailability in data set [2] (po 5 mg/Kg vs iv 1 mg/Kg) of 76%. In addition, the Emax at CRTH2 [3] is -8.1%.
As for `CCCCC(=O)N(Cc1ccc(OC)cc1)c1cc(Cl)cc(-c2nnn[nH]2)c1` [Example 46, N-[3-chloro-5-(1H-tetrazol-5-yl)phenyl]-N-(4-methoxybenzyl)pentanamide], the IC50 at CRTH2 (DP2) worked out at 4.2 nM; in data set [1] it was 0.245 µM. In addition, the Emax on CRTH2 [3] was -9.5%.
For the compound `CCCCC(=O)N(Cc1ccc2c(c1)OCCO2)c1cc(F)cc(-c2nnn[nH]2)c1` [Example 11, N-(2,3-dihydro-1,4-benzodioxin-6-ylmethyl)-N-[3-fluoro-5-(1H-tetrazol-5-yl)phenyl]pentanamide], the IC50 at CRTH2 (DP2) came out at 2.3 nM; in data set [1], 0.039 µM. At CRTH2 [3], the Emax was -14.9%.
On to `CCCCC(=O)N(Cc1ccc2c(c1)OCCO2)c1cccc(-c2nnn[nH]2)c1` [Example 5, N-(2,3-dihydro-1,4-benzodioxin-6-ylmethyl)-N-[3-(1H-tetrazol-5-yl)phenyl]pentanamide], for which the IC50 at CRTH2 (DP2) is 8.8 nM; in data set [1], 0.536 µM; on CRTH2 [4], 0.076 µM.
Turning to `CCC(=O)N(Cc1ccc(OC(F)(F)F)c(Cl)c1)c1cc(F)cc(-c2nnn[nH]2)c1` [Example 56, N-[3-chloro-4-(trifluoromethoxy)benzyl]-N-[3-fluoro-5-(1H-tetrazol-5-yl)phenyl]propanamide], the IC50 is 24 nM on CRTH2 (DP2) and 0.082 µM in data set [1]. Further, the clearance in data set [2] (female, C57BL/6, mouse, plasma, iv, i.v. 1 mg/Kg) was 15 mL/min/kg. The compound further showed an AUC in data set [2] (female, C57BL/6, mouse, plasma, oral gavage 5 mg/Kg) of 1910 ng·h/mL. In data set [2] (female, C57BL/6, mouse, plasma, po 5 mg/Kg vs iv 1 mg/Kg), the bioavailability was found to be 36%. For the same compound, the Emax at CRTH2 [3] is -13%.
Regarding `CCC(=O)N(Cc1ccc2c(c1)OCCO2)c1cc(-c2nnn[nH]2)ccc1F` [Example 9, N-(2,3-dihydro-1,4-benzodioxin-6-ylmethyl)-N-[2-fluoro-5-(1H-tetrazol-5-yl)phenyl]propanamide], the IC50 stood at 15 nM on CRTH2 (DP2) and 1.17 µM in data set [1].

For the origin of these results see patent US20120115869A1, “TETRAZOLE DERIVATIVES” (MERCK SERONO S.A., priority 2009, published 2012).
